Source: US20140163050A1, “Use of 1H-quinazoline-2,4-diones” (priority 2011, published 2014)
Several values for one entry are separate records, joined by “and”; a condition that tells them apart may be missing. Equal values may be shown once. Entries after “also recorded” stand apart in the source; their conditions may differ.

System: patients with PSE
Assay: IPS/PPR proof of concept study: suppression of PPR or reduction of SPR after single oral doses
Format: in vivo, human
Design: key to Maximum reduction of SPR: Overall reduction, Median: SPR steps (number of frequencies eliciting PPR), range 0-14
Details: for duration of maintained suppression of PPR: 2 individual patients; for PD effect of C7 / Effect maintained: reduction of SPR (≧3) / Effect maintained: suppression of PPR / Onset Time of reduction of SPR (≧3) / Onset Time of suppression of PPR: individual patients
Method: In patients with photosensitive epilepsy, a standardized photoparoxysmal response range (SPR) may be determined by performing the IPS with a standardized series of flash frequencies, for instance 14 frequencies from a range of 2 to 60 Hz. SPR is a dimensionless parameter and is defined as the number of frequencies (steps) between the lowest and highest frequencies, e.g. between 2 and 60 Hz, that consistently elicit a PPR. If 14 frequencies are tested, the minimum and maximum possible SPR values are 0 and 14. Zero means complete abolition of reactivity on any stimulation frequency, i.e. complete abolishment of the PPR. SPR is relatively stable for each patient and reflects the liability for seizures in daily life. The potential efficacy of an AED could be assessed by measuring hourly changes in the SPR after a single oral dose given to the PSE patients.
The study used the IPS/PPR paradigm. It was a multicenter, non-randomized, single blind, within-subject, placebo-controlled proof of concept study conducted to assess the effect of single oral doses of the compounded formula C-7 in suppressing the photoparoxysmal response (PPR) or reducing the standardized photoparoxysmal response range (SPR) in patients with PSE. Photosensitivity was detected using electroencephalography (EEG) measurements of subjects exposed to Intermittent Photic Stimulation (IPS). This EEG response was a photoparoxysmal response (PPR). For the purpose of the study, provocation of PPRs by IPS, not of seizures, was required. The SPR of each patient was the number of standard visual stimulation frequencies (in Hertz) that the patient was sensitive to, between the lower and upper thresholds. 14 frequencies were tested (from 2 to 60 Hertz). The time of onset and the duration of response (PPR suppression or SPR reduction) to the treatment with Compound C-7 in patients with PSE and the maximal reduction in SPR in patients with PSE were also evaluated.
Women of child-bearing potential (WOCBP) were asked to use acceptable methods of contraception. Patients with an SPR value of 3 or less at the screening and patients with no consistent PPR (less than 3 SPR steps difference between the two evaluations required) when stimulated by intermittent photic stimulation (IPS), as determined by comparison between screening and pre-dose Day 1, were excluded from the study. Furthermore subjects with history of status epilepticus and/or regular use of benzodiazepines as rescue medication, subjects with evidence or history of any medically significant cardiac, respiratory, hepatic, gastrointestinal, renal, hematologic, oncologic or progressive neurological disorder, requiring current medical intervention/therapy likely to have a significant impact on the outcome of this study, were also excluded.
There were three periods: a screening period for the assessment of patient's eligibility for participation in the study; a 3-day in hospital treatment period with single-blind dosing with placebo on days 1 and 3, and the compound of formula C-7 on day 2; and a study completion period consisting of a follow-up call by the medical investigator to the patient between day 10 and day 14 inclusive and a full study completion visit between day 29 and day 33 inclusive.
The dose of the compound of formula C-7 in Cohort studies I, II and III was 50, 100 and 15 mg respectively.

## CC(C)c1cc2[nH]c(=O)n(NS(C)(=O)=O)c(=O)c2cc1-c1ccnn1C [Compound C-7, N-[7-Isopropyl-6-(2-methyl-2H-pyrazol-3-yl)-2,4-dioxo-1,4-dihydro-2H-quinazolin-3-yl]-methanesulfonamide]
15, 50, 100 mg
  magnitude of the post-treatment effect between doses: dose dependent
C-7 15 mg dose group
  PD effect compared to C-7 50 and 100 mg dose groups: numerically markedly lower PD effect; also recorded: numerically lower but still measurable PD effect
  proportion of subjects with suppression of PPR: 33%
C-7 15 mg dose group (Cohort III), Day 2
  patients with complete suppression of PPR: 1 out of 3 and 1 of 3
C-7 15 mg group
  maintenance of SPR response and PPR suppression: none of the patients maintained the SPR response; also recorded: neither the SPR response nor suppression of PPR was maintained
C-7 15 mg group, one patient, eye open only, not maintained
  onset of suppression of PPR post dosing: 2 h
C-7 15 mg, eye closed, n=3
  Maximum reduction of SPR: Overall reduction, Mean (SD): 6.7 (1.15)
  Maximum reduction of SPR: Overall reduction, Median: 6.0
  Maximum reduction of SPR: Reduction from predose Day 2, Mean (SD): 5.0 (3.61)
  Maximum reduction of SPR: Reduction from predose Day 2, Median: 6.0
C-7 15 mg, eye closure, n=3
  Maximum reduction of SPR: Overall reduction, Mean (SD): 8.0 (1.73)
  Maximum reduction of SPR: Overall reduction, Median: 9.0
  Maximum reduction of SPR: Reduction from predose Day 2, Mean (SD): 7.3 (2.89)
  Maximum reduction of SPR: Reduction from predose Day 2, Median: 9.0
C-7 15 mg, eyes open, n=3
  Maximum reduction of SPR: Overall reduction, Mean (SD): 4.0 (3.46)
  Maximum reduction of SPR: Overall reduction, Median: 2.0
  Maximum reduction of SPR: Reduction from predose Day 2, Mean (SD): 3.0 (4.36)
  Maximum reduction of SPR: Reduction from predose Day 2, Median: 1.0
C-7 50 mg and 100 mg dose groups, all eye conditions
  AUECt on Day 2 compared to Day 1: significantly lower
C-7 50 mg dose group
  proportion of subjects with suppression of PPR: 50%
C-7 50 mg dose group (Cohort I), Day 2
  patients with complete suppression of PPR: 3 of 6
C-7 50 mg dose group (Cohort I, 6 patients), Day 2
  patients with reductions of the SPR range by at least 3 steps in at least one eye condition: 6 patients
C-7 50 mg group
  duration of maintained suppression of PPR: 2 h and 7 h
C-7 50 mg, eye closed, n=6
  Maximum reduction of SPR: Overall reduction, Mean (SD): 6.0 (2.37)
  Maximum reduction of SPR: Overall reduction, Median: 6.0
  Maximum reduction of SPR: Reduction from predose Day 2, Mean (SD): 5.0 (2.00)
  Maximum reduction of SPR: Reduction from predose Day 2, Median: 5.0
C-7 50 mg, eye closure, n=6
  Maximum reduction of SPR: Overall reduction, Mean (SD): 7.7 (3.01)
  Maximum reduction of SPR: Overall reduction, Median: 8.5
  Maximum reduction of SPR: Reduction from predose Day 2, Mean (SD): 6.5 (2.95)
  Maximum reduction of SPR: Reduction from predose Day 2, Median: 7.5
C-7 50 mg, eyes open, n=6
  Maximum reduction of SPR: Overall reduction, Mean (SD): 6.8 (2.99)
  Maximum reduction of SPR: Overall reduction, Median: 7.5
  Maximum reduction of SPR: Reduction from predose Day 2, Mean (SD): 4.8 (3.43)
  Maximum reduction of SPR: Reduction from predose Day 2, Median: 6.5
C-7 100 mg dose group
  proportion of subjects with suppression of PPR: 75%
  time to maximum reduction of SPR compared to the other 2 dose groups: shorter
C-7 100 mg dose group (Cohort II), Day 2
  patients with complete suppression of PPR: 3 out of 4 and 3 of 4
C-7 100 mg group
  duration of maintained suppression of PPR: 4 h and 3 h
C-7 100 mg, eye closed, n=4
  Maximum reduction of SPR: Overall reduction, Mean (SD): 7.5 (2.38)
  Maximum reduction of SPR: Overall reduction, Median: 8.5
  Maximum reduction of SPR: Reduction from predose Day 2, Mean (SD): 6.5 (2.38)
  Maximum reduction of SPR: Reduction from predose Day 2, Median: 6.5
C-7 100 mg, eye closure, n=4
  Maximum reduction of SPR: Overall reduction, Mean (SD): 9.3 (2.22)
  Maximum reduction of SPR: Overall reduction, Median: 10.0
  Maximum reduction of SPR: Reduction from predose Day 2, Mean (SD): 8.3 (1.50)
  Maximum reduction of SPR: Reduction from predose Day 2, Median: 9.0
C-7 100 mg, eyes open, n=4
  Maximum reduction of SPR: Overall reduction, Mean (SD): 8.8 (2.50)
  Maximum reduction of SPR: Overall reduction, Median: 8.5
  Maximum reduction of SPR: Reduction from predose Day 2, Mean (SD): 7.0 (1.41)
  Maximum reduction of SPR: Reduction from predose Day 2, Median: 6.5
C-7 50 and 100 mg dose groups
  maximum duration of maintenance of suppression of PPR: 7 h
C-7 50 and 100 mg dose groups, patients staying in responding status
  duration of maintained SPR response (maximum duration of maintenance): 33 h
Cohort I, C-7 50 mg single oral dose
  PD effect of C7: Suppression of PPR^e; also recorded: Reduction of SPR (≧3)
Cohort I, C-7 50 mg
  Effect maintained: reduction of SPR (≧3): No (4×) and Yes (2×)
  Effect maintained: suppression of PPR: No (2×) and Yes (2×)
  Onset Time of reduction of SPR (≧3): 2 h (2×) and 1 h (3×)
  Onset Time of suppression of PPR: 2 h and 3 h and 4 h
Cohort II, C-7 100 mg single oral dose
  PD effect of C7: Suppression of PPR; also recorded: Reduction of SPR (≧3)
Cohort II, C-7 100 mg
  Effect maintained: reduction of SPR (≧3): No (3×) and Yes
  Effect maintained: suppression of PPR: Yes (2×) and No
  Onset Time of reduction of SPR (≧3): 1 h (3×) and 2 h
  Onset Time of suppression of PPR: 2 h (2×) and 3 h
Cohort III, C-7 15 mg single oral dose
  PD effect of C7: Suppression of PPR^e; also recorded: Reduction of SPR (≧3)
Cohort III, C-7 15 mg
  Effect maintained: reduction of SPR (≧3): No
  Effect maintained: suppression of PPR: No
  Onset Time of reduction of SPR (≧3): 1 h
  Onset Time of suppression of PPR: 2 h
Cohorts II and III (100 mg and 15 mg, 7 patients), Day 2
  patients with reductions of the SPR range by at least 3 steps in at least one eye condition: 7 patients
All dose groups, 13 patients, includes suppression noted already at 0 hours
  patients who showed suppression of PPR (Table 2 count): 9 patients
All three dose groups (15, 50, 100 mg)
  patients with complete suppression of PPR: 7 of the 13 and 7 of 13
valproate, lamotrigine, levetiracetam, topiramate, zonisamide as concomitant AEDs
  impact of concomitant treatment with selected AEDs on the PD effect of C-7: did not appear to relevantly impact the PD effect
